Experimental data: ChEMBL document CHEMBL1165932, “Inhibition of Mycobacterium tuberculosis tyrosine phosphatase PtpA by synthetic chalcones: kinetics, molecular modeling, toxicity and effect on growth” (Bioorg Med Chem, 2010)
The source made the active and inactive calls. The calls are words filed in the database; no cut-off is given here.

Tests used:
[1] = target: T1, Phosphotyrosine-protein phosphatase PTPB (Mycobacterium tuberculosis, UniProt P96830); assay: Inhibition of N-terminal histidine-tagged Mycobacterium tuberculosis PTPB expressed in Escherichia coli BL21 (DE3) after 45 mins by fluorescence assay
T1 sequence (P96830 whole entry): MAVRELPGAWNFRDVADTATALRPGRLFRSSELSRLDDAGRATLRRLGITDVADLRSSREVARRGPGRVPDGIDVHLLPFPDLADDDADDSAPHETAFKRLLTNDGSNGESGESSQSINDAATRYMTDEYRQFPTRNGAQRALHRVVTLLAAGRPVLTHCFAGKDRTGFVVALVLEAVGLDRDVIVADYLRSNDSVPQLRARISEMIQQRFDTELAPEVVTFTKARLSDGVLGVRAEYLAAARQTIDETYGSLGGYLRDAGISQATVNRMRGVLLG

[2] = target: T2, Tyrosine-protein phosphatase non-receptor type 1 (Homo sapiens, UniProt P18031); assay: Inhibition of human PTP1B
T2 sequence (P18031 whole entry): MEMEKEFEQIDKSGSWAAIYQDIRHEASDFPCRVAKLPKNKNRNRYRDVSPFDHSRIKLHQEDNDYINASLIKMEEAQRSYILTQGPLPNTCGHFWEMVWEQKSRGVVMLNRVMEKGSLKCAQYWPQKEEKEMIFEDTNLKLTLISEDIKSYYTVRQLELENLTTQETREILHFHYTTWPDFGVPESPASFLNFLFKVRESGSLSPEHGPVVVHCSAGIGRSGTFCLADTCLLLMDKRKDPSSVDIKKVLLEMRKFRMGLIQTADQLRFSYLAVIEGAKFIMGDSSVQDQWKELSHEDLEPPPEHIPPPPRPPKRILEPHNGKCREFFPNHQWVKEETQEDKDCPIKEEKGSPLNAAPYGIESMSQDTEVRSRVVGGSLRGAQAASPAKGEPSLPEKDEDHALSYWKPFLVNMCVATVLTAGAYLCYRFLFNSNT

[3] = tested on: Mycobacterium tuberculosis; assay: Antibacterial activity against Mycobacterium tuberculosis H37Rv infected in human THP1 cells assessed as reduction of bacterial burden at 20 uM after 48 hrs; assay type: functional; conditions: for inhibition at 20 µM: THP-1, 48 h; for inhibition: THP-1
[4] = tested on: Mycobacterium tuberculosis; assay: Antibacterial activity against Mycobacterium tuberculosis H37Rv infected in human THP1 cells assessed as reduction of bacterial burden at 40 uM after 96 hrs; assay type: functional; conditions: THP-1, 96 h
[5] = target: T3, Low molecular weight protein-tyrosine phosphatase A (Mycobacterium tuberculosis) (UniProt P9WIA1); assay: Competitive inhibition of Mycobacterium tuberculosis PTPA by Lineweaver-Burke plot analysis
T3 sequence (whole entry): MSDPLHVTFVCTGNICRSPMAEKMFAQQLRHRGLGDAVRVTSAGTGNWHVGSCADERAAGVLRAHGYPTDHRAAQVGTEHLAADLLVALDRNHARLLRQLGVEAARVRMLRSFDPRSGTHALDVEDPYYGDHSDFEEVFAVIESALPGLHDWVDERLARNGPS

[6] = tested on: THP-1; assay: Cytotoxicity against human THP1 cells at 40 uM after 24 hrs by flow cytometry; assay type: cell-based; conditions: thp-1, 24 h
[7] = tested on: Mycobacterium tuberculosis; assay: Antibacterial activity against Mycobacterium tuberculosis H37Rv infected in human THP1 cells assessed as reduction of bacterial burden at 10 uM after 24 hrs; assay type: functional, organism-based; conditions: THP-1
[8] = target: T4, Phosphotyrosine-protein phosphatase PTPB (Mycobacterium tuberculosis) (UniProt P96830); assay: Inhibition of Mycobacterium tuberculosis PTPB at 100 uM after 20 mins by ELISA
T4 sequence (whole entry): T1 sequence (P96830 whole entry)

[9] = tested on: THP-1; assay: Cytotoxicity against human THP1 cells at 4 uM after 24 hrs by flow cytometry; assay type: cell-based; conditions: thp-1, 24 h
[10] = target: T5, Low molecular weight protein-tyrosine phosphatase A (Mycobacterium tuberculosis, UniProt P9WIA1); assay: Inhibition of Mycobacterium tuberculosis PTPA-mediated pNPP hydrolysis
T5 sequence (P9WIA1 whole entry): T3 sequence (whole entry)

[11] = target: T5, Low molecular weight protein-tyrosine phosphatase A; assay: Inhibition of Mycobacterium tuberculosis PTPA after 20 mins by ELISA
[12] = target: T3, Low molecular weight protein-tyrosine phosphatase A (Mycobacterium tuberculosis); assay: Inhibition of Mycobacterium tuberculosis PTPA-mediated dephosphorylation of VPS33B assessed as increase in phosphorylated VPS33B level after 15 mins by scintillation counting

Row | SMILES | IC50 [1] | IC50 [2] | inhibition at 20 µM [3] | inhibition at 40 µM [4] | inhibition [5] | Activity [6] | inhibition [7] | inhibition [8] | Activity [9] | Ki [10] | inhibition [3] | IC50 [11] | inhibition [12]
1 | NC1=S2C=CC(S(N)(=O)=O)=C2C(=O)C1=O (configuration not stated) | 0.44 µM |  |  |  |  |  |  |  |  |  |  |  | 
2 | COc1ccc(OC)c(C(=O)/C=C/c2cccc3ccccc23)c1 |  | 214 µM | 77% | 90% | Active | 77.8% | inactive | inactive | 0.9% | 21.3 µM |  |  | 
3 | COc1ccc(OC)c(C(=O)/C=C/c2ccc3ccccc3c2)c1 |  | 145 µM | 50% | 90% | Active | 83.1% |  | inactive | 1.3% | 5.4 µM |  |  | 
4 | COc1ccc(C(=O)/C=C/c2ccc3ccccc3c2)cc1OC |  | 1260 µM |  | 40% | Active | 1.6% |  | inactive |  | 4.9 µM | inactive |  | 
5 | COc1cc(C(=O)/C=C/c2ccc3ccccc3c2)ccc1O |  | 123 µM |  | 80% | Active | 10.5% |  | inactive | 0.9% | 17.9 µM | inactive | 53.7 µM | 
6 | O=C(/C=C/c1cccc2ccccc12)c1ccccc1O |  | 158 µM | 50% | 77% | Active | 2% |  | inactive |  | 9.1 µM |  |  | Dose-dependent effect
